Laboratory results from US11459315B2, “Modulators of methyl modifying enzymes, compositions and uses thereof” (Constellation Pharmaceuticals, Inc., priority 2017, dated 2022).
Read-outs that look alike come from different tables or passages of the source.

How the values were obtained:
PRC2 containing wt EZH2 = PRC2 containing wt EZH2 (Homo sapiens (Human), UniProt Q15910); test: EZH2 biochemical assay (IC50), 3H-SAM incorporation into biotinylated H3 peptide; details: 30 pM PRC2 containing wt EZH2, 3-5 h pre-incubation
PRC2 containing wt EZH2, sequence (Q15910 whole entry): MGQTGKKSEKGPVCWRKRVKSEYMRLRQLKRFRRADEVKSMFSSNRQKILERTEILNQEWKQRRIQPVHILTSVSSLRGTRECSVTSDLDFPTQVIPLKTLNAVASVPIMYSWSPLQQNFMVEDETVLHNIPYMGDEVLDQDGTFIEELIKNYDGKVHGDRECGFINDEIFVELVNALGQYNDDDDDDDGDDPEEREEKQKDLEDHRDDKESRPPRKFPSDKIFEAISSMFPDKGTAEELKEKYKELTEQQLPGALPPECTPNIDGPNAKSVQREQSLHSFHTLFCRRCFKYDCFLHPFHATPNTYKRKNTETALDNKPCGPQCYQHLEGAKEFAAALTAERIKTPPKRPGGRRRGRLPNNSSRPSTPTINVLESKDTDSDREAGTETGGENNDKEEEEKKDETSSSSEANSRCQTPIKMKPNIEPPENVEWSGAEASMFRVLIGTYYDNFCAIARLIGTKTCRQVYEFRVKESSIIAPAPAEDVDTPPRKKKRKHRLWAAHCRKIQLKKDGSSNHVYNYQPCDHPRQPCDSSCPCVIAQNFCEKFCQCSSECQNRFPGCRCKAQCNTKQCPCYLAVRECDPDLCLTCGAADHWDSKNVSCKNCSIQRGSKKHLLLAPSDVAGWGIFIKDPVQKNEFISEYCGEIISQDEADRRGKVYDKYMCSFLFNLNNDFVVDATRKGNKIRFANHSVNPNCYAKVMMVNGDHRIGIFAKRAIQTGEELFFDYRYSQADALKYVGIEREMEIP
PRC2 containing wt EZH2, sequence (O75530 whole entry partner): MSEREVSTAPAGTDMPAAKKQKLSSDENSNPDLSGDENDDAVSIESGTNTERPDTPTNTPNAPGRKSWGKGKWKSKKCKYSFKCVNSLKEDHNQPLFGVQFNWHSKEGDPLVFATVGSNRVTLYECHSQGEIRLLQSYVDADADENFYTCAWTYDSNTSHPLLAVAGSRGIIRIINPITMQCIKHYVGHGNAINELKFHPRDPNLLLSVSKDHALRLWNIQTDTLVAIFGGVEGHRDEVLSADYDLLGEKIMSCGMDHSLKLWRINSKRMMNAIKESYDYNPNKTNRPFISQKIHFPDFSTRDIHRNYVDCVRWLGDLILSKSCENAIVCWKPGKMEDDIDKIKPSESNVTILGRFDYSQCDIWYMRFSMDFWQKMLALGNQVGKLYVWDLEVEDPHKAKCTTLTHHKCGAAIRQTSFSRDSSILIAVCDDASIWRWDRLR
PRC2 containing wt EZH2, sequence (Q15022 whole entry partner): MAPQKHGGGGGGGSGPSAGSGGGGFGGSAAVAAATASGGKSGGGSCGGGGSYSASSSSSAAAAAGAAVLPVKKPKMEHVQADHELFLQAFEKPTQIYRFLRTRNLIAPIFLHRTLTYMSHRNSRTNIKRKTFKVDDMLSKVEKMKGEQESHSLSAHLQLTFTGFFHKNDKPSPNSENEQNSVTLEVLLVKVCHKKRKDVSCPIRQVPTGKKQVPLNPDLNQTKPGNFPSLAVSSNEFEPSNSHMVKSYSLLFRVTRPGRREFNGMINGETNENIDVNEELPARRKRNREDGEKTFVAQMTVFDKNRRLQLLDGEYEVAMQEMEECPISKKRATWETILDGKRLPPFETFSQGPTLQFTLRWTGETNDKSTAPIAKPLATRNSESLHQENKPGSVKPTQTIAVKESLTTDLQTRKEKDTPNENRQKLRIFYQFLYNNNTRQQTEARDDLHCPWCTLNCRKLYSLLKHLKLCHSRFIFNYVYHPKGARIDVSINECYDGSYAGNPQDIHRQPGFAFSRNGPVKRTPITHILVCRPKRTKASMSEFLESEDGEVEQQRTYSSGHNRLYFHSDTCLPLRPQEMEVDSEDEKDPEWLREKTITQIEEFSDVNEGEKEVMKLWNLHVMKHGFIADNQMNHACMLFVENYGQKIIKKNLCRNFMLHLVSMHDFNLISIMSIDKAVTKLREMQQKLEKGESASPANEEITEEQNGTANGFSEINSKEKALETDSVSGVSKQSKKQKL
PRC2 containing wt EZH2, sequence (Q09028 whole entry partner): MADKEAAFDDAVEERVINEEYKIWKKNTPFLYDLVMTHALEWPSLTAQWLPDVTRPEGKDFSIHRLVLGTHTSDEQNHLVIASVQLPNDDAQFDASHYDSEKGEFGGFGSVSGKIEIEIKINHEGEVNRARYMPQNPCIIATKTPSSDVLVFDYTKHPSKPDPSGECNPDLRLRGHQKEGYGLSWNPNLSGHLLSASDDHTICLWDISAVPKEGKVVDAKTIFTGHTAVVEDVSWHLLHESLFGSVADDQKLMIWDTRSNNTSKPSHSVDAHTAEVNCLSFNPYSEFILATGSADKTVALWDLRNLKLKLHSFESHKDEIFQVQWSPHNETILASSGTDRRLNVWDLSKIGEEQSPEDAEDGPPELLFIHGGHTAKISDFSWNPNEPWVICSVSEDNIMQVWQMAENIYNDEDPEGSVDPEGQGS
PRC2 containing wt EZH2, sequence (Q6ZN18 whole entry partner): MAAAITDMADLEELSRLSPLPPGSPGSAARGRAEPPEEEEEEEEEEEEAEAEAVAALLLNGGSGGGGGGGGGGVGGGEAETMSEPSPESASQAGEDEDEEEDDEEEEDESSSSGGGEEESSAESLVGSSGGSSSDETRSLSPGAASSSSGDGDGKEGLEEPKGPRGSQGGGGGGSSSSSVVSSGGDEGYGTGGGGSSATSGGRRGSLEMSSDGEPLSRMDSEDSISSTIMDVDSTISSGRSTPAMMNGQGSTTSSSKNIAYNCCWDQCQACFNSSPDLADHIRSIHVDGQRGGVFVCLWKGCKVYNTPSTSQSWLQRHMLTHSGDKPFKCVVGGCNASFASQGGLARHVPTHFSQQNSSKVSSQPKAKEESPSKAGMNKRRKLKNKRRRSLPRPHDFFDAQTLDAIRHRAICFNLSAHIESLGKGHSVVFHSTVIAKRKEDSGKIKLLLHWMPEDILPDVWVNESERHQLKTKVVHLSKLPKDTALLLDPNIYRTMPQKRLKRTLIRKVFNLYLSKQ
How it was run: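 Activity was measured as ³H-methyl transfer to a biotinylated H3K27me1 peptide over 18-22 h at room temperature, with capture on streptavidin flash plates. The 30 pM wt-EZH2 PRC2 complex was first pre-incubated 3-5 h with compound, 450 nM SAM/450 nM ³H-SAM and 2 µM H3K27me3 activator (pH 8.5, 0.8% DMSO). Four-parameter fits gave IC50.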

[1] = tested on: H3K27me3 mark in HeLa cells (EZH2); test: H3K27me3 Alpha Hela Assay (AlphaLISA); assay type: cell-based; details: Homo sapiens, HeLa, 72 h, HeLa cells, 72 hrs; read-out: EZH2 Cell H3K27me3 Alpha HeLa (EC50 K27me3)
How it was run: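 HeLa cells (1,000/well) treated with ten 3-fold compound doses for 72 h at 37 °C; lysates extracted and H3K27me3 detected by AlphaLISA with anti-K27me3 acceptor beads, biotinylated anti-H3 (3 nM) and streptavidin donor beads. EC50 from DMSO-normalized dose-response curves; duplicate plate assessed viability.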

Row | SMILES | IC50 (PRC2 containing wt EZH2; EZH2 (IC50)) [nM] | EC50 [1] [nM] | IC50 (PRC2 containing wt EZH2; read-out: EZH2 (IC50)) [nM]
1 | CSc1cc(C)[nH]c(=O)c1CNC(=O)c1c(C)n([C@H](C)C2CCN(CC(F)(F)F)CC2)c2ncccc12 [Example 25, (R)-2-methyl-N-((6-methyl-4-(methylthio)-2-oxo-1,2-dihydropyridin-3-yl)methyl)-1-(1-(1-(2,2,2-trifluoroethyl)piperidin-4-yl)ethyl)-1H-pyrrolo[2,3-b]pyridine-3-carboxamide] | < 0.5 | < 10 | –
2 | CSc1cc(C)[nH]c(=O)c1CNC(=O)c1c(C)n([C@H](C)C2CCN(C3CC3)CC2)c2ncccc12 [Example 26, (R)-1-(1-(1-cyclopropylpiperidin-4-yl)ethyl)-2-methyl-N-((6-methyl-4-(methylthio)-2-oxo-1,2-dihydropyridin-3-yl)methyl)-1H-pyrrolo[2,3-b]pyridine-3-carboxamide] | < 0.5 | < 10 | –
3 | CSc1cc(C)[nH]c(=O)c1CNC(=O)c1c(C)n([C@H](C)C2CCC(N3CC(OC(F)F)C3)CC2)c2cc(F)ccc12 (stereo partly drawn) [Example 29, 1-((R)-1-(4-(3-(difluoromethoxy)azetidin-1-yl)cyclohexyl)ethyl)-6-fluoro-2-methyl-N-((6-methyl-4-(methylthio)-2-oxo-1,2-dihydropyridin-3-yl)methyl)-1H-indole-3-carboxamide] | – | < 10 | < 0.5
4 | CSc1cc(C)[nH]c(=O)c1CNC(=O)c1c(C)n([C@H](C)CO)c2ccccc12 [Example 31, (R)-1-(1-hydroxypropan-2-yl)-2-methyl-N-((6-methyl-4-(methylthio)-2-oxo-1,2-dihydropyridin-3-yl)methyl)-1H-indole-3-carboxamide] | – | > 100 | > 5
5 | COC[C@@H](C)n1c(C)c(C(=O)NCc2c(SC)cc(C)[nH]c2=O)c2ccccc21 [Example 32, (R)-1-(1-methoxypropan-2-yl)-2-methyl-N-((6-methyl-4-(methylthio)-2-oxo-1,2-dihydropyridin-3-yl)methyl)-1H-indole-3-carboxamide] | < 0.5 | 10 to 100 | –
6 | CCOC[C@@H](C)n1c(C)c(C(=O)NCc2c(SC)cc(C)[nH]c2=O)c2ccccc21 [Example 33, (R)-1-(1-ethoxypropan-2-yl)-2-methyl-N-((6-methyl-4-(methylthio)-2-oxo-1,2-dihydropyridin-3-yl)methyl)-1H-indole-3-carboxamide] | 0.5 to 5 | 10 to 100 | –
7 | CSc1cc(C)[nH]c(=O)c1CNC(=O)c1c(C)n([C@@H](C)c2cnc(C)nc2)c2ccccc12 [Example 34, (S)-2-methyl-N-((6-methyl-4-(methylthio)-2-oxo-1,2-dihydropyridin-3-yl)methyl)-1-(1-(2-methylpyrimidin-5-yl)ethyl)-1H-indole-3-carboxamide] | – | > 100 | > 5
8 | CSc1cc(C)[nH]c(=O)c1CNC(=O)c1c(C)n([C@H](C)c2cnc(C)nc2)c2ccccc12 [Example 35, (R)-2-methyl-N-((6-methyl-4-(methylthio)-2-oxo-1,2-dihydropyridin-3-yl)methyl)-1-(1-(2-methylpyrimidin-5-yl)ethyl)-1H-indole-3-carboxamide] | – | > 100 | > 5
9 | CSc1cc(C)[nH]c(=O)c1CNC(=O)c1c(C)n([C@H](C)[C@H]2CCNC[C@@H]2F)c2ccccc12 [Example 37, 1-((R)-1-((3R,4R)-3-fluoropiperidin-4-yl)ethyl)-2-methyl-N-((6-methyl-4-(methylthio)-2-oxo-1,2-dihydropyridin-3-yl)methyl)-1H-indole-3-carboxamide] | < 0.5 | 10 to 100 | –
10 | CSc1cc(C)[nH]c(=O)c1CNC(=O)c1c(C)n([C@H](C)C2CCNC[C@H]2F)c2ccccc12 (stereo partly drawn) [Example 38, 1-((1R)-1-((3S)-3-fluoropiperidin-4-yl)ethyl)-2-methyl-N-((6-methyl-4-(methylthio)-2-oxo-1,2-dihydropyridin-3-yl)methyl)-1H-indole-3-carboxamide] | < 0.5 | 10 to 100 | –
11 | CSc1cc(C)[nH]c(=O)c1CNC(=O)c1c(C)n([C@H](C)C2CCN(C#N)CC2)c2ccccc12 [Example 39, (R)-1-(1-(1-cyanopiperidin-4-yl)ethyl)-2-methyl-N-((6-methyl-4-(methylthio)-2-oxo-1,2-dihydropyridin-3-yl)methyl)-1H-indole-3-carboxamide] | < 0.5 | 10 to 100 | –
12 | CSc1cc(C)[nH]c(=O)c1CNC(=O)c1c(C)n([C@H](C)C2CCC(O)CC2)c2nc(C)ccc12 (stereo partly drawn) [Example 40, 1-((1R)-1-(4-hydroxycyclohexyl)ethyl)-2,6-dimethyl-N-((6-methyl-4-(methylthio)-2-oxo-1,2-dihydropyridin-3-yl)methyl)-1H-pyrrolo[2,3-b]pyridine-3-carboxamide] | 0.5 to 5 | > 100 | –
13 | CSc1cc(C)[nH]c(=O)c1CNC(=O)c1c(C)n([C@H](C)[C@H]2CCN(C)C[C@@H]2F)c2ccccc12 [Example 42, 1-((R)-1-((3R,4R)-3-fluoro-1-methylpiperidin-4-yl)ethyl)-2-methyl-N-((6-methyl-4-(methylthio)-2-oxo-1,2-dihydropyridin-3-yl)methyl)-1H-indole-3-carboxamide] | < 0.5 | < 10 | –
14 | CSc1cc(C)[nH]c(=O)c1CNC(=O)c1c(C)n([C@H](C)C2CCN(C)C[C@H]2F)c2ccccc12 (stereo partly drawn) [Example 43, 1-((1R)-1-((3S)-3-fluoro-1-methylpiperidin-4-yl)ethyl)-2-methyl-N-((6-methyl-4-(methylthio)-2-oxo-1,2-dihydropyridin-3-yl)methyl)-1H-indole-3-carboxamide] | < 0.5 | 10 to 100 | –
15 | CSc1cc(C)[nH]c(=O)c1CNC(=O)c1c(C)n([C@H](C)C2CCC(F)(F)CC2)c2ccccc12 [Example 45, (R)-1-(1-(4,4-difluorocyclohexyl)ethyl)-2-methyl-N-((6-methyl-4-(methylthio)-2-oxo-1,2-dihydropyridin-3-yl)methyl)-1H-indole-3-carboxamide] | < 0.5 | < 10 | –
16 | CSc1cc(C)[nH]c(=O)c1CNC(=O)c1c(C)n([C@H](C)c2ccc(N(C)C)cc2)c2ccccc12 [Example 46, (R)-1-(1-(4-(dimethylamino)phenyl)ethyl)-2-methyl-N-((6-methyl-4-(methylthio)-2-oxo-1,2-dihydropyridin-3-yl)methyl)-1H-indole-3-carboxamide] | < 0.5 | 10 to 100 | –
17 | CSc1cc(C)[nH]c(=O)c1CNC(=O)c1c(C)n([C@@H](C)c2ccc(N(C)C)cc2)c2ccccc12 [Example 47, (S)-1-(1-(4-(dimethylamino)phenyl)ethyl)-2-methyl-N-((6-methyl-4-(methylthio)-2-oxo-1,2-dihydropyridin-3-yl)methyl)-1H-indole-3-carboxamide] | 0.5 to 5 | > 100 | –
18 | CSc1cc(C)[nH]c(=O)c1CNC(=O)c1c(C)n([C@H](C)C2CCN(C3CC3)CC2)c2ccccc12 [Example 48, (R)-1-(1-(1-cyclopropylpiperidin-4-yl)ethyl)-2-methyl-N-((6-methyl-4-(methylthio)-2-oxo-1,2-dihydropyridin-3-yl)methyl)-1H-indole-3-carboxamide] | < 0.5 | < 10 | –
19 | CSc1cc(C)[nH]c(=O)c1CNC(=O)c1c(C)n([C@H](C)C2CC(NC3COC3)C2)c2ccccc12 (stereo partly drawn) [Example 49, 2-methyl-N-((6-methyl-4-(methylthio)-2-oxo-1,2-dihydropyridin-3-yl)methyl)-1-((R)-1-(3-(oxetan-3-ylamino)cyclobutyl)ethyl)-1H-indole-3-carboxamide] | – | > 100 | 0.5 to 5
20 | CSc1cc(C)[nH]c(=O)c1CNC(=O)c1c(C)n([C@H](C)C2CCN(C3CC3)CC2)c2ncncc12 [Example 50, (R)-7-(1-(1-cyclopropylpiperidin-4-yl)ethyl)-6-methyl-N-((6-methyl-4-(methylthio)-2-oxo-1,2-dihydropyridin-3-yl)methyl)-7H-pyrrolo[2,3-d]pyrimidine-5-carboxamide] | < 0.5 | < 10 | –
21 | CSc1cc(C)[nH]c(=O)c1CNC(=O)c1c(C)n([C@H](C)C2CCN(CCO)CC2)c2ccccc12 [Example 52, (R)-1-(1-(1-(2-hydroxyethyl)piperidin-4-yl)ethyl)-2-methyl-N-((6-methyl-4-(methylthio)-2-oxo-1,2-dihydropyridin-3-yl)methyl)-1H-indole-3-carboxamide] | < 0.5 | > 100 | –
22 | CSc1cc(C)[nH]c(=O)c1CNC(=O)c1c(C)n([C@H](C)C2CN(CC(F)(F)F)C2)c2ccccc12 [Example 54, (R)-2-methyl-N-((6-methyl-4-(methylthio)-2-oxo-1,2-dihydropyridin-3-yl)methyl)-1-(1-(1-(2,2,2-trifluoroethyl)azetidin-3-yl)ethyl)-1H-indole-3-carboxamide] | 0.5 to 5 | 10 to 100 | –
23 | CSc1cc(C)[nH]c(=O)c1CNC(=O)c1c(C)n([C@@H](C)C2CN(CC(F)(F)F)C2)c2ccccc12 [Example 55, (S)-2-methyl-N-((6-methyl-4-(methylthio)-2-oxo-1,2-dihydropyridin-3-yl)methyl)-1-(1-(1-(2,2,2-trifluoroethyl)azetidin-3-yl)ethyl)-1H-indole-3-carboxamide] | 0.5 to 5 | 10 to 100 | –
